Data on eight compounds can be found in paper PMC11310081, “Deep-learning-enabled antibiotic discovery through molecular de-extinction” (Nature Biomedical Engineering, 2024).

The test system of one data set is E. coli AIC221. The format is cell-based, Escherichia coli. Conditions: AIC221, 20 h. From the text: (§1) The following Gram-negative bacteria were used in our study: A. baumannii ATCC 19606, E. coli ATCC 11775, E. coli AIC221 (E. coli MG1655 phnE_2::FRT), E. coli AIC222 (E. coli MG1655 pmrA53 phnE_2::FRT (colistin resistant)), K. pneumoniae ATCC 13883, P. aeruginosa PAO1 and P. aeruginosa PA14. The following Gram-positive bacteria were also used in our study: S. aureus ATCC 12600, S. aureus ATCC BAA-1556 (methicillin-resistant strain), E. faecalis ATCC 700802 (vancomycin-resistant strain) and E. faecium ATCC 700221 (vancomycin-resistant strain). Bacteria were grown from frozen stocks and plated on Luria–Bertani (LB) or Pseudomonas isolation agar plates (P. aeruginosa strains) and incubated overnight at 37 °C. After the incubation period, a single colony was transferred to 5 ml of LB medium, and cultures were incubated overnight (16 h) at 37 °C. The following day, an inoculum was prepared by diluting the overnight cultures 1:100 in 5 ml of the respective media and incubating them at 37 °C until bacteria reached logarithmic phase (OD600 = 0.3–0.5).
(§2) The in vitro antimicrobial activity of the peptides was assessed by using the broth microdilution assay. […] Aqueous solutions of the peptides were added to the plate at concentrations ranging from 1 to 64 μmol l^−1. […] The optical density of the plates was measured at 600 nm using a spectrophotometer. All assays were done as three biological replicates.

The next data set deals with HEK293T cells. The conditions noted are these: 24 h. The procedure, abridged:
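5,000 cells/well seeded a day ahead in DMEM with 10% FBS, then treated with peptides; viability by MTT (0.5 mg/ml, 4 h, 37 °C), formazan in acidic isopropanol read at 570 nm. Concentration causing 50% lysis from non-linear regression; three biological replicates, two technical each.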

The subject of data set [1] is 11 clinically relevant bacterial pathogens. It is filed as cell-based. Conditions: Supplementary Dataset 2; against the 11 pathogens tested. The procedure, abridged:
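Broth microdilution with peptides at 1 to 64 μmol l^−1. Inocula came from overnight LB cultures diluted 1:100 and grown at 37 °C to log phase (OD600 = 0.3–0.5); growth read by OD600, three biological replicates.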

Data set [2] concerns A. baumannii ATCC 19606. It is filed as cell-based, Acinetobacter baumannii. Conditions: ATCC 19606, 20 h.
Text: as §1, §2

For data set [3], the system named is A. baumannii ATCC 19606. The data set is described as follows: Cytoplasmic membrane depolarization assay (DiSC3-5). It is filed as cell-based, Acinetobacter baumannii. The conditions noted are these: DiSC3-5 fluorescence, peptide at its MIC, polymyxin B as positive control; three replicates. How it is done: The depolarization of the bacterial cytoplasmic membrane was determined by fluorescence measurements of the membrane potential-sensitive dye, DiSC3-5 (ref. [16]). Briefly, A. baumannii ATCC 19606 and P. aeruginosa PAO1 were grown at 37 °C until mid-log phase (OD600 = 0.5). The cells were then centrifuged using the same conditions described for the NPN uptake assays, washed twice with washing buffer containing 20 mmol l^−1 glucose and 5 mmol l^−1 HEPES (pH 7.2). The cells were diluted 1:10 (OD600 = 0.05) in a buffer containing 0.1 mol l^−1 KCl, 20 mmol l^−1 glucose and 5 mmol l^−1 HEPES (pH 7.2). About 100 μl of bacterial solution was then incubated for 15 min with 20 nmol l^−1 of DiSC3-5 until the fluorescence reached a plateau, that is, the dye was fully internalized into the bacterial membrane. Transmembrane potential changes were monitored by observing the difference in the fluorescence emission intensity of DiSC3-5 (λex = 622 nm, λem = 670 nm), after the addition of 100 μl of peptide aqueous solution at its MIC. All assays were performed in three biological replicates. The relative fluorescence values were calculated for the course of the experiment using non-linear fitting, and the untreated control (buffer + bacteria + fluorescent dye) served as baseline. The following equation was applied to show the percentage difference between the fluorescence of the untreated control (baseline) and the sample: Percentagedifference=100×(fluorescencesample−baseline)/baseline

A further data set relates to E. coli ATCC 11775. The format is cell-based, Escherichia coli. The conditions noted are these: ATCC 11775, 20 h.
Text: as §1, §2

Data set [4] relates to E. faecium ATCC 700221 (vancomycin-resistant strain). The format is cell-based, Enterococcus faecium. The conditions noted are these: ATCC 700221, 20 h.
Text: as §1, §2

For data set [5], the system named is S. aureus ATCC BAA-1556 (methicillin-resistant strain). The format is cell-based, Staphylococcus aureus. Conditions: ATCC BAA-1556, 20 h.
Text: as §1, §2

The test system of another data set is K. pneumoniae ATCC 13883. The format is cell-based, Klebsiella pneumoniae. The conditions noted are these: ATCC 13883, 20 h.
Text: as §1, §2

Converted amounts (≈) assume the structure as drawn. Peptide text beside a SMILES is read from it.

One may read the CC50 as the concentration giving 50% cytotoxicity. Take `CC[C@H](C)[C@H](NC(=O)[C@H](CCCCN)NC(=O)[C@H](CC(C)C)NC(=O)[C@@H](NC(=O)[C@@H](N)CCCCN)[C@@H](C)O)C(=O)N[C@H](C(=O)N[C@@H](CCCNC(=N)N)C(=O)N[C@@H](CC(C)C)C(=O)N[C@@H](CC(C)C)C(=O)N[C@@H](Cc1ccccc1)C(=O)O)[C@@H](C)CC` [Mammuthusin-3] (H-KTLKIIRLLF-OH; N-terminus and C-terminus assumed): in the data set on E. coli AIC221, the “Minimal inhibitory concentration, E. coli AIC221” value is 16 µM (≈ 19.9 µg/mL). This compound also gave a CC50 with HEK293T cells greater than 128 µM. Moreover, the “Active or Inactive” value in [1] is on record as “Active”. In addition, the “Minimal inhibitory concentration, A. baumannii ATCC19606” value in the data set with A. baumannii ATCC 19606 [2] amounted to 32 µM (≈ 39.8 µg/mL).
In the case of `CC[C@H](C)[C@H](NC(=O)CNC(=O)[C@H](Cc1c[nH]cn1)NC(=O)[C@H](CC(N)=O)NC(=O)[C@H](CCCCN)NC(=O)[C@H](CCC(N)=O)NC(=O)[C@@H](N)CCCNC(=N)N)C(=O)N[C@@H](Cc1c[nH]cn1)C(=O)N[C@@H](Cc1ccccc1)C(=O)N[C@@H](CCCNC(=N)N)C(=O)N[C@H](C(=O)N[C@@H](CC(C)C)C(=O)N[C@@H](C)C(=O)N[C@@H](CCCCN)C(=O)N[C@@H](C)C(=O)N[C@@H](CC(C)C)C(=O)N[C@@H](CCCNC(=N)N)C(=O)O)C(C)C` [Hesperelin-3] (H-RQKNHGIHFRVLAKALR-OH; N-terminus and C-terminus assumed), the “Cytoplasmic membrane depolarization, in words” value with A. baumannii ATCC 19606 [3] was “most potent depolarization effects”. The “Active or Inactive” value in [1] is given as “Active”.
On to `CC[C@H](C)[C@H](NC(=O)[C@H](CC(C)C)NC(=O)[C@H](CCCNC(=N)N)NC(=O)[C@H](Cc1c[nH]c2ccccc12)NC(=O)[C@H](CC(C)C)NC(=O)[C@@H](NC(=O)[C@H](CCCNC(=N)N)NC(=O)[C@H](CCC(N)=O)NC(=O)[C@H](Cc1ccc(O)cc1)NC(=O)[C@H](CC(C)C)NC(=O)[C@@H](N)CCCCN)[C@@H](C)CC)C(=O)N[C@@H](CO)C(=O)N[C@@H](CCC(=O)O)C(=O)N[C@@H](CC(C)C)C(=O)O` [Equusin-3] (H-KLYQRILWRLISEL-OH; N-terminus and C-terminus assumed), for which the “Minimal inhibitory concentration, E. coli AIC221” value in the data set with E. coli AIC221 is 4 µM (≈ 7.32 µg/mL). For the same compound, in the data set with E. coli ATCC 11775, the “Minimal inhibitory concentration, E. coli ATCC11775” value was 16 µM (≈ 29.3 µg/mL). For the same compound, in the data set on HEK293T cells, the CC50 was greater than 128 µM. Besides, in data set [4], the “Minimal inhibitory concentration, E. faecium ATCC700221-VRE” value amounted to 8 µM (≈ 14.6 µg/mL). Besides, in data set [1], the “Active or Inactive” value was “Active”.
For the compound `CC[C@H](C)[C@H](NC(=O)[C@@H](NC(=O)[C@H](Cc1c[nH]c2ccccc12)NC(=O)[C@H](CCCCN)NC(=O)[C@@H](N)CCCCN)C(C)C)C(=O)N[C@@H](CCCCN)C(=O)N[C@@H](CO)C(=O)N[C@H](C(=O)N[C@H](C(=O)N[C@@H](Cc1ccccc1)C(=O)N[C@@H](Cc1ccccc1)C(=O)N[C@@H](CCCCN)C(=O)O)C(C)C)C(C)C` [Hesperelin-2] (H-KKWVIKSVVFFK-OH; N-terminus and C-terminus assumed), the “Minimal inhibitory concentration, E. coli AIC221” value with E. coli AIC221 is 8 µM (≈ 12.1 µg/mL). The “Minimal inhibitory concentration, S. aureus ATCC BAA-1556-MRSA” value in [5] worked out at 16 µM (≈ 24.1 µg/mL). In the data set with HEK293T cells, this compound registered a half-maximal cytotoxic concentration (CC50) greater than 128 µM. In the data set on K. pneumoniae ATCC 13883, the “Minimal inhibitory concentration, K. pneumoniae ATCC133883” value was 32 µM (≈ 48.3 µg/mL). The “Minimal inhibitory concentration, E. faecium ATCC700221-VRE” value in data set [4] was 8 µM (≈ 12.1 µg/mL). Besides, the “Active or Inactive” value in data set [1] is given as “Active”. Also, the “Minimal inhibitory concentration, A. baumannii ATCC19606” value in the data set with A. baumannii ATCC 19606 [2] turned out to be 16 µM (≈ 24.1 µg/mL).
Take `CC[C@H](C)[C@H](N)C(=O)N[C@@H](CO)C(=O)N[C@@H](CC(C)C)C(=O)N[C@@H](Cc1ccccc1)C(=O)N[C@H](C(=O)N[C@@H](CCCNC(=N)N)C(=O)N1CCC[C@H]1C(=O)N[C@@H](CC(C)C)C(=O)N[C@@H](C)C(=O)N[C@@H](CC(C)C)C(=O)NCC(=O)N[C@H](C(=O)N[C@@H](CCCNC(=N)N)C(=O)N[C@@H](CC(C)C)C(=O)O)C(C)C)[C@@H](C)CC` [Psephotellin-1] (H-ISLFIRPLALGVRL-OH; N-terminus and C-terminus assumed): in the data set with E. coli AIC221, the “Minimal inhibitory concentration, E. coli AIC221” value was 16 µM (≈ 25.1 µg/mL). The “Minimal inhibitory concentration, E. coli ATCC11775” value in the data set with E. coli ATCC 11775 amounted to 16 µM (≈ 25.1 µg/mL). In the data set with HEK293T cells, the 50% cytotoxic concentration (CC50) was greater than 128 µM. For the same compound, in the data set on K. pneumoniae ATCC 13883, the “Minimal inhibitory concentration, K. pneumoniae ATCC133883” value is 32 µM (≈ 50.2 µg/mL). Also, the “Active or Inactive” value in data set [1] is “Active”. In addition, the “Minimal inhibitory concentration, A. baumannii ATCC19606” value with A. baumannii ATCC 19606 [2] was 32 µM (≈ 50.2 µg/mL).
Take `CC[C@H](C)[C@H](NC(=O)[C@H](Cc1ccccc1)NC(=O)[C@@H](N)CCCCN)C(=O)N[C@@H](CC(C)C)C(=O)N[C@@H](CC(N)=O)C(=O)N[C@@H](Cc1ccccc1)C(=O)N[C@@H](CCCCN)C(=O)N[C@H](C(=O)N1CCC[C@H]1C(=O)N[C@H](C(=O)N[C@@H](CO)C(=O)N[C@@H](Cc1ccccc1)C(=O)N[C@@H](CCCCN)C(=O)O)[C@@H](C)CC)[C@@H](C)CC` [Pinguinusin-1] (H-KFILNFKIPISFK-OH; N-terminus and C-terminus assumed): in the data set on E. coli AIC221, the “Minimal inhibitory concentration, E. coli AIC221” value amounted to 4 µM (≈ 6.38 µg/mL). For the same compound, the “Minimal inhibitory concentration, E. coli ATCC11775” value in the data set with E. coli ATCC 11775 is 16 µM (≈ 25.5 µg/mL). Also, the CC50 in the data set on HEK293T cells was greater than 128 µM. Moreover, the “Minimal inhibitory concentration, K. pneumoniae ATCC133883” value in the data set with K. pneumoniae ATCC 13883 is 16 µM (≈ 25.5 µg/mL). The “Active or Inactive” value in data set [1] was “Active”. Further, the “Minimal inhibitory concentration, A. baumannii ATCC19606” value in the data set with A. baumannii ATCC 19606 [2] turned out to be 32 µM (≈ 51 µg/mL).
For the compound `CC[C@H](C)[C@H](NC(=O)[C@H](CCCCN)NC(=O)[C@@H](N)CCCNC(=N)N)C(=O)N[C@@H](CC(C)C)C(=O)NCC(=O)N[C@@H](CC(=O)O)C(=O)N[C@@H](CC(C)C)C(=O)N[C@@H](CCCCN)C(=O)N[C@@H](Cc1ccccc1)C(=O)N[C@@H](CC(C)C)C(=O)N[C@@H](CCC(=O)O)C(=O)N[C@@H](CO)C(=O)N[C@@H](CC(C)C)C(=O)N[C@@H](CCCCN)C(=O)N[C@H](C(=O)N[C@@H](Cc1ccc(O)cc1)C(=O)O)[C@@H](C)O` [Anomalopterin-1] (H-RKILGDLKFLESLKTY-OH; N-terminus and C-terminus assumed), in the data set on HEK293T cells, the CC50 was greater than 128 µM and the “TI (therapeutic index)” value is listed as greater than 2. Also, the “Cytoplasmic membrane depolarization, in words” value in the data set on A. baumannii ATCC 19606 [3] is given as “most potent depolarization effects”. Moreover, the “Active or Inactive” value in data set [1] was “Active”. Also, the “Minimal inhibitory concentration, A. baumannii ATCC19606” value with A. baumannii ATCC 19606 [2] was 64 µM (≈ 123 µg/mL).
In the case of `CC[C@H](C)[C@H](NC(=O)[C@H](CCCCN)NC(=O)[C@@H](NC(=O)[C@H](Cc1c[nH]c2ccccc12)NC(=O)[C@H](CCCCN)NC(=O)[C@@H](N)CCCCN)[C@@H](C)O)C(=O)N[C@@H](Cc1ccc(O)cc1)C(=O)N[C@@H](CO)C(=O)N1CCC[C@H]1C(=O)N[C@@H](CC(C)C)C(=O)N[C@@H](CO)C(=O)N[C@@H](CC(C)C)C(=O)O` [Smilodin-1] (H-KKWTKIYSPLSL-OH; N-terminus and C-terminus assumed), in the data set with HEK293T cells, the 50% cytotoxic concentration (CC50) is greater than 128 µM and the “TI (therapeutic index)” value is greater than 2. Moreover, the “Minimal inhibitory concentration, K. pneumoniae ATCC133883” value in the data set on K. pneumoniae ATCC 13883 came out at 64 µM (≈ 93.7 µg/mL). Further, the “Active or Inactive” value in data set [1] is recorded as “Active”.
